Data on nine compounds can be found in BindingDB's records for doi:10.1021/jm061299k (Bayer Healthcare Pharmaceuticals, 2007).

The structures appear in SMILES notation.

One experiment concerns the target T1, Peroxisome proliferator-activated receptor delta (Homo sapiens, UniProt Q03181).
T1 sequence (Q03181 whole entry): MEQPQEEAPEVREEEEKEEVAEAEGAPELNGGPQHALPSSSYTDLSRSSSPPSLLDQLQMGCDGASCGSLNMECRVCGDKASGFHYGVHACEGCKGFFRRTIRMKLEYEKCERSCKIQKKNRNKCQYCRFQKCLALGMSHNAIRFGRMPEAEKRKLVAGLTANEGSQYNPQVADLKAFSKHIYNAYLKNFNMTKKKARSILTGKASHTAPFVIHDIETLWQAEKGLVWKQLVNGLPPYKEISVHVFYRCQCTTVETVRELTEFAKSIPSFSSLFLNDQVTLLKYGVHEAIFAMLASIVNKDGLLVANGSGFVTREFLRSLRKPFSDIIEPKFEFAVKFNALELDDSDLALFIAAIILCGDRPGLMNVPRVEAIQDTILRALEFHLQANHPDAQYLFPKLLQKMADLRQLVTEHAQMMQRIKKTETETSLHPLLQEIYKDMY
Put plainly: PPAR FRET Assay. The conditions noted are these: 25 °C. As to the method:
(§1) Activity was assessed by measuring the human PPAR ligand binding domain with the co-activator protein. Europium labeled anti-GST antibody, streptavidin-labeled APC, biotin-labeled co-activator protein, and PPAR-GST were incubated at room temperature in buffer in the presence or absence of test compound.
Broadly, the EC50 is the concentration giving half of the maximal effect. `CCCc1cc(-c2nc3c(s2)CCCO3)ccc1OCCCOc1ccc2c(c1)CC[C@H]2CC(=O)O` [2-[(1S)-5-[3-(2-propyl-4-{5H,6H,7H-pyrano[2,3-d][1,3]thiazol-2-yl}phenoxy)propoxy]-2,3-dihydro-1H-inden-1-yl]acetic acid] came in with an EC50 of 4 nM. This lies in the single-digit nanomolar range.

The target in another experiment is T2, Peroxisome proliferator-activated receptor alpha (Homo sapiens, UniProt Q07869).
T2 sequence (Q07869 whole entry): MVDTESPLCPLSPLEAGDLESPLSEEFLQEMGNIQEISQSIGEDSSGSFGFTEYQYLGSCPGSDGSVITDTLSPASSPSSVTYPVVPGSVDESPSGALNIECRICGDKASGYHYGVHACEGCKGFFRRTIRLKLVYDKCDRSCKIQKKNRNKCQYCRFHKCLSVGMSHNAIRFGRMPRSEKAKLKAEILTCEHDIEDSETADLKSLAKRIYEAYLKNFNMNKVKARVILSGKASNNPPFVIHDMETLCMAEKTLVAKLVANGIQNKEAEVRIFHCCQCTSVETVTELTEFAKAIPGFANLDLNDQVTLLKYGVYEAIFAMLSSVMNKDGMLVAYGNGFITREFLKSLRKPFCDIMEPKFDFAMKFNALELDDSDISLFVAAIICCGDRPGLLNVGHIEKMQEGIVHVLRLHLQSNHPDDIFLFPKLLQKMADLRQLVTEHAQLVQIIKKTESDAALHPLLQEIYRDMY
The experiment can be described thus: PPAR FRET Assay. The conditions noted are these: 25 °C. As to the method:
as §1
For the compound `CCCc1cc(-c2nc3c(s2)CCCO3)ccc1OCCCOc1ccc2c(c1)CC[C@H]2CC(=O)O` [2-[(1S)-5-[3-(2-propyl-4-{5H,6H,7H-pyrano[2,3-d][1,3]thiazol-2-yl}phenoxy)propoxy]-2,3-dihydro-1H-inden-1-yl]acetic acid], a half-maximal effect (EC50) was put at 101 nM. This lies in the sub-micromolar range.

The target of the next experiment is Peroxisome proliferator-activated receptor gamma (Mus musculus) (UniProt P37238). The experiment can be described thus: PPARgamma activity was assessed by the cell-based insulin receptor binding assay (IRBA) in mouse 3T3-L1 cells, measuring the increase in the number of insulin receptors.
Conditions: not given
In turn, `O=C(O)C[C@@H]1CCc2cc(OCCCOc3ccccc3)ccc21` [2-[(1S)-5-(3-phenoxypropoxy)-2,3-dihydro-1H-inden-1-yl]acetic acid] displayed a concentration giving a half-maximal response (EC50) above 10000 nM.

`COc1cc(-c2nc(C)c(C(=O)N(C)C)s2)ccc1OCCCOc1ccc2c(c1)CC[C@H]2CC(=O)O` [2-[(1S)-5-(3-{4-[5-(dimethylcarbamoyl)-4-methyl-1,3-thiazol-2-yl]-2-methoxyphenoxy}propoxy)-2,3-dihydro-1H-inden-1-yl]acetic acid] yielded a 50% effective concentration (EC50) of 312 nM. Same read-out and setting: the figure for `CCCc1cc(-c2nc(C)c(C(=O)N(C)C)s2)ccc1OCCCOc1ccc2c(c1)CC[C@H]2CC(=O)O` [2-[(1S)-5-(3-{4-[5-(dimethylcarbamoyl)-4-methyl-1,3-thiazol-2-yl]-2-propylphenoxy}propoxy)-2,3-dihydro-1H-inden-1-yl]acetic acid] is 20 nM; for `O=C(O)C[C@@H]1CCc2cc(OCCCOc3ccc4cnoc4c3)ccc21` [2-[(1S)-5-[3-(1,2-benzoxazol-6-yloxy)propoxy]-2,3-dihydro-1H-inden-1-yl]acetic acid] it is above 10000 nM; for `O=C(O)C[C@@H]1CCc2cc(OCCCOc3ccc4ncoc4c3)ccc21` [2-[(1S)-5-[3-(1,3-benzoxazol-6-yloxy)propoxy]-2,3-dihydro-1H-inden-1-yl]acetic acid] it is above 10000 nM. The compound `O=C(O)C[C@@H]1CCc2cc(OCCCOc3ccc4cc[nH]c4c3)ccc21` [2-[(1S)-5-[3-(1H-indol-6-yloxy)propoxy]-2,3-dihydro-1H-inden-1-yl]acetic acid] displayed an EC50 above 10000 nM. `Cc1ccc(OCCCOc2ccc3c(c2)CC[C@H]3CC(=O)O)cc1C` [2-[(1S)-5-[3-(3,4-dimethylphenoxy)propoxy]-2,3-dihydro-1H-inden-1-yl]acetic acid] registered an EC50 above 10000 nM. With `CCCc1c(OCCCOc2ccc3c(c2)CC[C@H]3CC(=O)O)ccc2c1ccn2C` [2-[(1S)-5-{3-[(1-methyl-4-propyl-1H-indol-5-yl)oxy]propoxy}-2,3-dihydro-1H-inden-1-yl]acetic acid], the EC50 was above 10000 nM.
